Test results published in patent US8962641B2, “Pyrimidine-substituted pyrrolidine derivatives, pharmaceutical compositions and uses thereof” (Boehringer Ingelheim International GmbH, priority 2013, dated 2015).
pIC50: −log10 of the molar value.

Biological target: human ACC2 (Homo sapiens (Human), UniProt O00763)
Experiment: ACC2 assay (spectrophotometric 384 well assay, NADH-linked kinetic method)
Type: biochemical
Details: hACC2 construct lacking 128 N-terminal amino acids; coupled lactate dehydrogenase/pyruvate kinase reaction, 340 nm, 25° C.
Summary of the method: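 Baculovirus/insect-cell human ACC2, anion-exchange purified; ADP formation coupled to pyruvate kinase/lactate dehydrogenase, NADH loss followed at 340 nm, 25° C, 15 min. Final 200 μM NADH and acetyl-CoA, 500 uM ATP; vehicle and no-acetyl-CoA wells set 100% and 0%.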

Sequence of human ACC2 (O00763 129-2458): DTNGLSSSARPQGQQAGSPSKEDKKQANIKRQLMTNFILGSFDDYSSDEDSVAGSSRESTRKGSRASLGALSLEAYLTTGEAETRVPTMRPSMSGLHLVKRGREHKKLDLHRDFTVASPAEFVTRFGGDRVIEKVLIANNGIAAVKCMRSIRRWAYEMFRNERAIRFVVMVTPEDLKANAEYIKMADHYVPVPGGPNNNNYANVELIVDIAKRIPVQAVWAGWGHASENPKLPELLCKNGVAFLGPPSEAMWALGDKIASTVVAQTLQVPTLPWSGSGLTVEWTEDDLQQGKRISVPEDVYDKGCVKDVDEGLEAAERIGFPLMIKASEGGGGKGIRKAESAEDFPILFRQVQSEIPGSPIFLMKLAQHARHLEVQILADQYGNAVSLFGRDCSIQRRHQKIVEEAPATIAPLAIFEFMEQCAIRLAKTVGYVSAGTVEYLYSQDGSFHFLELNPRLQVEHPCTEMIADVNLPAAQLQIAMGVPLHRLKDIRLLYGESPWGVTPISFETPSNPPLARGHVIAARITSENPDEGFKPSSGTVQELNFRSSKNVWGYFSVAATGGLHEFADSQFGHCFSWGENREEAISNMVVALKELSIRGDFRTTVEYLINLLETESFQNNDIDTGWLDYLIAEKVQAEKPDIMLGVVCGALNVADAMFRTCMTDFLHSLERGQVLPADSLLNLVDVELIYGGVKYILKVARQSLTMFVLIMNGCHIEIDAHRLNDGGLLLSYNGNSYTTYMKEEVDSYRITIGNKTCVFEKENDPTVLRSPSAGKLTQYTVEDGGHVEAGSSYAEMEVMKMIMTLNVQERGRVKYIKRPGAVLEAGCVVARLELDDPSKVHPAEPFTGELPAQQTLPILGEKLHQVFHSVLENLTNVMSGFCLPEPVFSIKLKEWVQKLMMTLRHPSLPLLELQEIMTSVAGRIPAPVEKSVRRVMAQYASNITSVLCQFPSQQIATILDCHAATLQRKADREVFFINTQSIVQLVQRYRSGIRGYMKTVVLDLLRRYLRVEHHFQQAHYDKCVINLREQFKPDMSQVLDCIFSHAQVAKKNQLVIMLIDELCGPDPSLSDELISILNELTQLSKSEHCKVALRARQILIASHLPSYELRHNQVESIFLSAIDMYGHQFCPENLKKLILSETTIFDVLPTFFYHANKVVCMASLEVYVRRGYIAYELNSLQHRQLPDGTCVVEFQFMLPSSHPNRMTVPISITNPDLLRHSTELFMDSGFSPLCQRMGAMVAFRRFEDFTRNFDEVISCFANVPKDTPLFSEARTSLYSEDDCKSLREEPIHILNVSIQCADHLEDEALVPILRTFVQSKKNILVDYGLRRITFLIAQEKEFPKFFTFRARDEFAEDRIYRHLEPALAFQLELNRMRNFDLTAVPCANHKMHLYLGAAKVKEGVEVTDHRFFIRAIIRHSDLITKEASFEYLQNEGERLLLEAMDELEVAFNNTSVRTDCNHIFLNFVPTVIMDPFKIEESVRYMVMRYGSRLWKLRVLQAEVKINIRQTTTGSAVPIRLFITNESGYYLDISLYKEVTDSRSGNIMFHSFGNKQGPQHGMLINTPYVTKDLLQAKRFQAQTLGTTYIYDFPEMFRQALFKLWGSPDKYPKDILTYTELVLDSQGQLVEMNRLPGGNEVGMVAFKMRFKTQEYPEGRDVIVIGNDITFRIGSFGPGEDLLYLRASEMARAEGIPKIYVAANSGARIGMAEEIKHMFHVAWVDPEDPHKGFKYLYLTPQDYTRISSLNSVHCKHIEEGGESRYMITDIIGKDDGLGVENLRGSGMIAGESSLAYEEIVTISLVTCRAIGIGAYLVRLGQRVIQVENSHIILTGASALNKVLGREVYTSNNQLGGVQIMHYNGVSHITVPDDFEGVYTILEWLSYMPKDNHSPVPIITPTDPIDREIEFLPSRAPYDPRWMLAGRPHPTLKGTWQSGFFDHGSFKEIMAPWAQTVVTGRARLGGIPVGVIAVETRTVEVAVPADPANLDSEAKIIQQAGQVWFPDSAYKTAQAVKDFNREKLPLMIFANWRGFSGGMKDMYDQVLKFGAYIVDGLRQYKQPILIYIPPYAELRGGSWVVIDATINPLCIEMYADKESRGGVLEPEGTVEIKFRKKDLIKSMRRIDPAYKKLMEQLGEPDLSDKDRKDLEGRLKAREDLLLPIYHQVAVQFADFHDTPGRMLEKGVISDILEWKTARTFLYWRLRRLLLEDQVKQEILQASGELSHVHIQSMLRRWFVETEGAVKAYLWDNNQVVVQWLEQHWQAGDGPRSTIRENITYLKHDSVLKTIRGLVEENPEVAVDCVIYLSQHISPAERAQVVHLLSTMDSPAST

Compared with `CC(=O)N[C@@H](C)c1ccc(O[C@@H]2CCN(c3nc(N4CCOC(C)(C)C4)ncc3Cl)C2)cc1` [Example 8.209], `CC(=O)N[C@@H](C)c1ccc(O[C@@H]2CCN(c3nc(N4CCCCC4)ncc3Cl)C2)cc1` [Example 8.127] is 0.52 log units higher in pIC50: 6.45 for the first, 6.97 for the second. The second is the more potent here.

`COC(C)(C)COc1ncnc(N2CC[C@@H](Oc3ccc([C@H](C)NC(C)=O)cc3)C2)c1Cl` [Example 7.60] and `CC(=O)N[C@@H](C)c1ccc(O[C@@H]2CCN(c3ncnc(NCC4CC4)c3F)C2)cc1` [Example 8.121] are within 0.2 log units of each other in pIC50: 6.84 for the first, 6.77 for the second.

Going from `C[C@H](NC(=O)C(F)F)c1ccc(OC2CCN(c3ncnc(OCC4CC4)c3F)C2)cc1` (some centres unmarked) [Example 5.3] to `CC(=O)Nc1nc(C)c(C(=O)N[C@@H](C)c2ccc(OC3CCN(c4ncnc(OCC5CC5)c4F)C3)cc2)s1` (some centres unmarked) [Example 2.19], the pIC50 rises from 7.19 to 7.41 (0.22 log units).

Going from `CC(=O)N[C@@H](C)c1ccc(O[C@@H]2CCN(c3nc(N(CCO)C4CC4)ncc3F)C2)cc1` [Example 8.288] to `CCN(C)c1ncc(F)c(N2CC[C@@H](Oc3ccc([C@H](C)NC(C)=O)cc3)C2)n1` [Example 8.31], the pIC50 rises from 6.06 to 7.02 (0.96 log units). The second is the more potent here.

`CCNC(=O)N[C@@H](C)c1ccc(OC2CCN(c3ccnc(N4CCOCC4)n3)C2)cc1` (some centres unmarked) [Example 3.3] and `CC(=O)N[C@@H](C)c1ccc(O[C@@H]2CCN(c3ncnc(N4CCOCC4)c3Cl)C2)cc1` [Example 8.117] are within 0.2 log units of each other in pIC50: 6.35 for the first, 6.31 for the second.

`COC[C@@H](C)N(C)c1ncc(F)c(N2CC[C@@H](Oc3ccc([C@H](C)NC(C)=O)cc3)C2)n1` [Example 8.150] and `CC(=O)N[C@@H](C)c1ccc(O[C@@H]2CCN(c3nc(N(C)CC(C)C)ncc3F)C2)cc1` [Example 8.164] are within 0.2 log units of each other in pIC50: 6.80 for the first, 6.99 for the second.

`CC(=O)N[C@@H](C)c1ccc(O[C@@H]2CCN(c3ccnc(OCC4CC4)n3)C2)cc1` [Example 7.6] and `CC(=O)N[C@@H](C)c1ccc(O[C@@H]2CCN(c3ccnc(OC4CCC4)n3)C2)cc1` [Example 7.7] are within 0.2 log units of each other in pIC50: 5.96 for the first, 6.05 for the second.

Compared with `CCN(C)c1nccc(N2CCC(Oc3ccc([C@H](C)NC(=O)OC)cc3)C2)n1` (some centres unmarked) [Example 4.4], `CCN(C)c1nccc(N2CCC(Oc3ccc([C@H](C)NC(=O)c4sc(NC(=O)COC)nc4C)cc3)C2)n1` (some centres unmarked) [Example 2.9] is 0.60 log units lower in pIC50: 7.12 for the first, 6.52 for the second. The first is the more potent here.

Compared with `CC(=O)N[C@@H](C)c1ccc(O[C@@H]2CCN(c3ncnc(N(C)CC4CC4)c3F)C2)cc1` [Example 8.92], `CC(=O)N[C@@H](C)c1ccc(OC2CCN(c3cnc(OC4CCC4)nc3)C2)cc1` (some centres unmarked) [Example 1.2] is 0.75 log units lower in pIC50: 7.00 for the first, 6.25 for the second.

First: CCC(=O)Nc1nc(C)c(C(=O)N[C@@H](C)c2ccc(O[C@@H]3CCN(c4ncnc(OCC(C)(C)O)c4F)C3)cc2)s1 [Example 7.65]
Second: COc1c(OCC2CC2)ncnc1N1CC[C@@H](Oc2ccc([C@H](C)NC(=O)c3cnco3)cc2)C1 [Example 2.27]
The pIC50 of the first is 0.80 log units lower: 6.19 for the first, 6.99 for the second.
